Results on 20 molecules are retold here after ChEMBL document CHEMBL5331099, “Chemical scaffold recycling: Structure-guided conversion of an HIV integrase inhibitor into a potent influenza virus RNA-dependent RNA polymerase inhibitor designed to minimize resistance potential” (Eur J Med Chem, 2023).

The first experiment can be described thus: Inhibition of Influenza A virus A/California/04/2009 (H1N1) N-terminal his tagged domain of PA endonuclease expressed in Escherichia coli BL21 (DE3) cells preincubated with enzyme for 1 hr followed by RNA addition and measured after 90 mins by MALDI-FTICR-MS analysis.
The IC50 is the midpoint of a concentration-inhibition curve. `O=C1c2c(O)c(=O)ccn2N([C@@H]2c3ccccc3SCc3c2ccc(F)c3F)C2COCCN12` (stereo partly drawn) returned an IC50 of 50 nM.
With `Cc1nnc(C(=O)NC(C)(C)c2nc(C(=O)NCc3ccc(F)cc3)c(O)c(=O)n2C)o1` [RALTEGRAVIR], the IC50 was more than 20000 nM.
`COc1cnccc1CCNC(=O)c1nc(-c2ccccc2C(F)(F)F)[nH]c(=O)c1O` displayed an IC50 of 420 nM.
The molecule `COc1cnccc1CCNC(=O)c1nc(-c2ccccc2)[nH]c(=O)c1O` came in with an IC50 of 1220 nM.
`COc1cc(CCNC(=O)c2nc(C(C)(C)NC(=O)OCc3ccccc3)[nH]c(=O)c2O)ccc1O` registered an IC50 of 620 nM.
The molecule `COc1cnccc1CCNC(=O)c1nc(-c2ccc(C(F)(F)F)cc2)[nH]c(=O)c1O` showed an IC50 of more than 20000 nM.
Molecule `CC(C)(NC(=O)OCc1ccccc1)c1nc(O)c(O)c(C(=O)NCCc2ccc(F)cc2)n1` displayed an IC50 of 6450 nM.
`COc1cc(CCNC(=O)c2nc(-c3ccccc3C(F)(F)F)[nH]c(=O)c2O)ccc1O` came in with an IC50 of 270 nM.
For the molecule `CC(C)(NC(=O)OCc1ccccc1)c1nc(C(=O)NCCn2cnc3c(N)ncnc32)c(O)c(=O)[nH]1`, it took 1620 nM to reach half-maximal inhibition (IC50).
Regarding `O=C1NCCc2cccc(c2)OCCCCOc2cccc(c2)-c2nc1c(O)c(=O)[nH]2`, the IC50 was more than 20000 nM.
As for `O=C1NCCc2cccc(c2)OC/C=C\COc2cccc(c2)-c2nc1c(O)c(=O)[nH]2`, half-maximal inhibition (IC50) required 4960 nM.
On the same count and under the same terms, then `COc1cnccc1CCNC(=O)c1nc(-c2c(F)cccc2F)[nH]c(=O)c1O`, with 1110 nM; and `O=C1NCCc2cccc(c2)OC/C=C/COc2cccc(c2)-c2nc1c(O)c(=O)[nH]2`, with 12500 nM.
The molecule `COc1cnccc1CCNC(=O)c1nc(-c2ccccc2F)[nH]c(=O)c1O` registered an IC50 of 820 nM.
Consider `COc1cnccc1CCNC(=O)c1nc(Cc2ccccc2C(F)(F)F)[nH]c(=O)c1O`, for which the IC50 is more than 20000 nM.
Still for that read-out and setting: next, `COc1cnccc1CCNC(=O)c1nc(-c2ccccc2C)[nH]c(=O)c1O`: 390 nM; `COc1cnccc1CCNC(=O)c1nc(-c2cccc(C(F)(F)F)c2)[nH]c(=O)c1O`: 4530 nM.
In turn, `CC(C)(NC(=O)OCc1ccccc1)c1nc(C(=O)NCc2ccc(F)cc2)c(O)c(=O)[nH]1` displayed an IC50 of more than 20000 nM.
`Nc1ncnc2c1ncn2CCNC(=O)c1nc(-c2ccccc2C(F)(F)F)[nH]c(=O)c1O` yielded an IC50 of 290 nM.
As for `COc1cnccc1CCNC(=O)c1nc(C(C)(C)NC(=O)OCc2ccccc2)[nH]c(=O)c1O`, the IC50 turned out to be 1970 nM.

The next experiment is described as follows: Binding affinity to Influenza A virus A/California/04/2009 (H1N1) wild type N-terminal his tagged domain of PA endonuclease expressed in Escherichia coli BL21 (DE3) cells assessed as dissociation constant by MST assay.
One may read the Kd as the constant that tells how readily two partners part at equilibrium. On to `O=C1c2c(O)c(=O)ccn2N([C@@H]2c3ccccc3SCc3c2ccc(F)c3F)C2COCCN12` (stereo partly drawn), for which the Kd was 6 nM.
The same measure, in the same setting: then `COc1cnccc1CCNC(=O)c1nc(-c2ccccc2C(F)(F)F)[nH]c(=O)c1O`, with 54 nM; and `Nc1ncnc2c1ncn2CCNC(=O)c1nc(-c2ccccc2C(F)(F)F)[nH]c(=O)c1O`, with 18 nM.
